In article PMC7795425, “Synthesis and Biological Activity of Brassinosteroid Analogues with a Nitrogen-Containing Side Chain” (International Journal of Molecular Sciences, 2020):

Legend:
[1] = system: Arabidopsis thaliana L. (Columbia ecotype, Col-0) seedlings; experiment: Arabidopsis root sensitivity bioassay; type: in vivo; conditions: for root length, mean: 7-day-old seedlings; for inhibitory effect on Arabidopsis root growth: tested 0.1 to 10 nM, selected derivatives also 100 nM
Procedure: Several bioassays such as the first bean internode, root growth and rice lamina inclination have been developed to evaluate the growth-promoting activity of BR derivatives. In this work, the activity of new BR analogues was evaluated using the Arabidopsis root sensitivity test because of its simplicity and high sensitivity for BRs.. The characteristic effect of exogenously applied BRs on light-grown Arabidopsis is dose-dependent—BRs in higher concentrations cause inhibition of root growth; vice versa, low concentrations are stimulating. The results obtained for 24-epiBL, which was used as a positive control, and the BR derivatives are shown in Figure 2, Figure 3 and Figure S21. […] A similar trend was shown for dimethylammonium hydrochloride 22a and morpholinium hydrochloride 22e with a long side chain. For numerical values of the average, SD and p-value, see Table S2.
The biological activity of the new BRs derivatives was tested by an Arabidopsis sensitivity bioassay which was performed according to [28]. Briefly, seedlings of Arabidopsis thaliana L. (Columbia ecotype, Col-0) were stratified for 2 days at 4 °C and germinated on vertical half-strength Murashige and Skoog (1% w/v sucrose) agar at 22 °C in a 16 h/8 h light–dark cycle. The plates contained concentrations of 24-epiBL (as positive control) and BR derivatives ranging from 0.1 to 10 nM, respectively 100 nM (for selected derivatives only). After 7 days, roots were straightened on solid media plates and scanned with an Epson high-resolution scanner. The entire root length was measured with ImageJ (http://rsbweb.nih.gov/ij/). For each treatment, more than 15 seedlings were analyzed in two biological repeats, and p-values were calculated with the two-tailed Student t-test using Excel software.
(§1) Figure 2 Effect of selected brassinosteroid derivatives on the inhibition of Arabidopsis root length. Seven-day-old Arabidopsis thaliana seedlings (Columbia ecotype, Col-0) were treated with DMSO as control/24epiBL/BR short side chain derivatives; (A)—amides, (B)—amines, (C)—ammonium hydrochlorides. For each treatment, more than 15 seedlings were analyzed in two biological repeats. Error bars represent SD. Asterisks represent significant changes (t-test); * represents p-value < 0.05, in comparison to control.
as §1, with “Figure 3” for “Figure 2”, “control/24epiBL/BR long” for “control/24epiBL/BR short”, “(A)—amides, (B)—ammonium” for “(A)—amides, (B)—amines, (C)—ammonium”
Table S2: Data for figure 2, 3, and S21. P value <0.05(t-test), comparison to control.
control (mean ± SD) 16.3 ± 1.21
*only selected compounds were tested
mean(mm) SD t-test mean (mm) SD t-test mean (mm) SD t-test mean (mm) SD t-test
(1 picture or pasted object on this page, not shown here)

[2] = Calcein AM cytotoxicity assay, CEM; type: cell-based; conditions: human, CEM T-lymphoblastic leukemia cells, IC50 > 50 µM means inactive, read-out: Cytotoxic activity IC50
Procedure: (§2) The effect of the prepared BRs derivatives on the viability (in Calcein AM assays) of BJ human fibroblasts (as an example of a “normal” cell line) and human cancer cell lines of various histopathological origins, including: T-lymphoblastic leukemia CEM, breast carcinoma MCF7 and cervical carcinoma cell line HeLa, was also studied. Cells of all these lines were exposed to six 3-fold dilutions of each drug for 72 h prior to determination of cell survival. The IC50 (concentration leading to 50% inhibition of viability) values obtained from the Calcein AM cytotoxicity assay were calculated. […] All tested BR nitrogen-containing derivatives had no detectable activity, even when tested in concentrations of up to 50 µM.
(§3) The screening cell lines: T-lymphoblastic leukemia CEM; breast carcinoma MCF7 (estrogen-sensitive); cervical carcinoma cell line HeLa; and human foreskin fibroblasts BJ, were obtained from the American Type Culture Collection (Manassas, VA, USA). Cells were cultured in DMEM (Dulbecco’s Modified Eagle Medium, Sigma, St. Louis, MO, USA). Media used were supplemented with 10% fetal bovine serum, 2mM L-glutamine and 1% penicillin–streptomycin. The cell lines were maintained under standard cell culture conditions at 37 °C and 5% CO2 in a humid environment.
(§4) Cells were subcultured twice or three times a week using the standard trypsinization procedure. Cytotoxicity in cancer cell lines after 72 h was determined as described earlier. Control cultures were treated with DMSO alone, and the final concentration of DMSO in the mixture never exceeded 0.6%. Six serial 3-fold dilutions of the test substances were added at time zero in 20 μL aliquots to the microtiter plate wells and the highest final concentration in the wells was 50 μM.
(§5) Table S3: Cytotoxic activities, IC50 (µM/L)a, of compounds in three tumor and one normal fibroblast
(§6) Compound CEM MCF7 HeLa BJ
(§7) a The lowest concentration that kills 50% of cells.
(§8) b Increase of cell proliferation.

[3] = Calcein AM cytotoxicity assay, MCF7; type: cell-based; conditions: human, MCF7 breast carcinoma cells (estrogen-sensitive), MCF7, 72 h, IC50 > 50 µM means inactive, read-out: Cytotoxic activity IC50
Procedure: as §2, §3, §4, §5, §6, §7, §8

[4] = Calcein AM cytotoxicity assay, HeLa; type: cell-based; conditions: human, HeLa cervical carcinoma cells, IC50 > 50 µM means inactive, read-out: Cytotoxic activity IC50
Procedure: as §2, §3, §4, §5, §6, §7, §8

[5] = Calcein AM cytotoxicity assay, BJ; type: cell-based; conditions: human, BJ foreskin fibroblasts (normal cell line), IC50 > 50 µM means inactive, read-out: Cytotoxic activity IC50
Procedure: as §2, §3, §4, §5, §6, §7, §8

[6] = 100 nM (only selected compounds), control 14.61 ± 0.85

Structure (SMILES) | root length, mean ([1]; 0.1 nM, control 16.3 ± 1.21) [mm] | root length, mean ([1]; 1 nM, control 16.3 ± 1.21) [mm] | root length, mean ([1]; 10 nM, control 16.3 ± 1.21) [mm] | IC50 at 72 h [2] [µM] | IC50 at 72 h [3] [µM] | IC50 at 72 h [4] [µM] | IC50 at 72 h [5] [µM] | melting point | root length, mean [1, 6] [mm] | inhibitory effect on Arabidopsis root growth [1] | elongation of roots (growth-promoting activity) compared to the control ([1]; low concentrations (0.1 and 1 nM))
C[C@H]([C@@H](O)[C@H](O)C(=O)N1CCOCC1)[C@H]1CC[C@H]2[C@@H]3CC(=O)[C@H]4C[C@H](O)[C@H](O)C[C@]4(C)[C@H]3CC[C@]12C [20e, 4-((20S,22R,23S)-2α,3α,22,23-tetrahydroxy-6-oxo-5α-cholan-24-oyl)morpholine] | 17.44 | 16.78 | 15.97 | > 50 | > 50 | > 50 | > 50 | > 210 °C (dec.) | – | – | –
C[C@H]([C@@H](O)[C@@H](O)CN1CCCCC1)[C@H]1CC[C@H]2[C@@H]3CC(=O)[C@H]4C[C@H](O)[C@H](O)C[C@]4(C)[C@H]3CC[C@]12C.Cl [22d, 1-((20S,22R,23S)-2α,3α,22,23-tetrahydroxy-6-oxo-5α-cholan-24-yl)piperidinium chloride] | 15.48 | 15.97 | 16.62 | > 50 | > 50 | > 50 | > 50 | > 250 °C (dec.) | – | – | –
C[C@H](CN1CCOCC1)[C@H]1CC[C@H]2[C@@H]3CC(=O)[C@H]4C[C@H](O)[C@H](O)C[C@]4(C)[C@H]3CC[C@]12C [15e, (20S)-20-(morpholin-4-ylmethyl)-2α,3α-dihydroxy-5α-pregnane-6-one] | 17.21 | 17.61 | 16.21 | > 50 | > 50 | > 50 | > 50 | > 210 °C (dec.) | 13.731 | – | –
CCN(CC)C[C@H](O)[C@H](O)[C@@H](C)[C@H]1CC[C@H]2[C@@H]3CC(=O)[C@H]4C[C@H](O)[C@H](O)C[C@]4(C)[C@H]3CC[C@]12C.Cl [22b, N,N-diethyl-((20S,22R,23S)-2α,3α,22,23-tetrahydroxy-6-oxo-5α-cholan-24-yl)aminium chloride] | 14.51 | 15.32 | 15.48 | > 50 | > 50 | > 50 | > 50 | > 250 °C (dec.) | 15.160 | the same effect only at low concentrations | –
CCN(CC)C(=O)[C@@H](O)[C@H](O)[C@@H](C)[C@H]1CC[C@H]2[C@@H]3CC(=O)[C@H]4C[C@H](O)[C@H](O)C[C@]4(C)[C@H]3CC[C@]12C [20b, N,N-diethyl-(20S,22R,23S)-2α,3α,22,23-tetrahydroxy-6-oxo-5α-cholan-24-amide] | 16.78 | 15.32 | 14.99 | > 50 | > 50 | > 50 | > 50 | > 160 °C (dec.) | – | – | –
C[C@H]([C@@H](O)[C@H](O)C(=O)N1CCCCC1)[C@H]1CC[C@H]2[C@@H]3CC(=O)[C@H]4C[C@H](O)[C@H](O)C[C@]4(C)[C@H]3CC[C@]12C [20d, 1-((20S,22R,23S)-2α,3α,22,23-tetrahydroxy-6-oxo-5α-cholan-24-oyl)piperidine] | 14.37 | 14.50 | 14.51 | > 50 | > 50 | > 50 | > 50 | > 200 °C (dec.) | – | – | –
C[C@H]([C@@H](O)[C@@H](O)CN1CCCC1)[C@H]1CC[C@H]2[C@@H]3CC(=O)[C@H]4C[C@H](O)[C@H](O)C[C@]4(C)[C@H]3CC[C@]12C.Cl [22c, 1-((20S,22R,23S)-2α,3α,22,23-tetrahydroxy-6-oxo-5α-cholan-24-yl)pyrrolidinium chloride] | 15.97 | 14.83 | 15.81 | > 50 | > 50 | > 50 | > 50 | > 250 °C (dec.) | – | – | –
C[C@H]([C@@H](O)[C@H](O)C(=O)N(C)C)[C@H]1CC[C@H]2[C@@H]3CC(=O)[C@H]4C[C@H](O)[C@H](O)C[C@]4(C)[C@H]3CC[C@]12C [20a, N,N-dimethyl-(20S,22R,23S)-2α,3α,22,23-tetrahydroxy-6-oxo-5α-cholan-24-amide] | 16.13 | 14.67 | 14.18 | > 50 | > 50 | > 50 | > 50 | > 210 °C (dec.) | 15.192 | weak inhibitory effect | –
C[C@H](C(=O)N1CCCCC1)[C@H]1CC[C@H]2[C@@H]3CC(=O)[C@H]4C[C@H](O)[C@H](O)C[C@]4(C)[C@H]3CC[C@]12C [8d, 1-((20S)-2α,3α-dihydroxy-6-oxo-5α-pregnane-20-carbonyl)piperidine] | 17.11 | 15.97 | 14.18 | > 50 | > 50 | > 50 | > 50 | > 230 °C (dec.) | – | – | –
C[C@H]([C@@H](O)[C@@H](O)CN(C)C)[C@H]1CC[C@H]2[C@@H]3CC(=O)[C@H]4C[C@H](O)[C@H](O)C[C@]4(C)[C@H]3CC[C@]12C.Cl [22a, N,N-dimethyl-((20S,22R,23S)-2α,3α,22,23-tetrahydroxy-6-oxo-5α-cholan-24-yl)aminium chloride] | 19.56 | 18.17 | 17.11 | > 50 | > 50 | > 50 | > 50 | > 270 °C (dec.) | 13.464 | – | interesting growth-promoting activity
